Literature values in patent US7795435B2, “Process for obtaining the polymorphic form I of finasteride” (Ragactives, S.L., priority 2002, dated 2010).

Settings: 25° C., according to EP 0 599 376 B1

Row | SMILES | solubility in cyclohexane | solubility in water
1 | CC(C)(C)NC(=O)[C@H]1CC[C@H]2[C@@H]3CC[C@H]4NC(=O)C=C[C@]4(C)[C@H]3CC[C@]12C [Form I of finasteride] | 0.27 ± 0.05 mg/g | 0.05 ± 0.02 mg/g
2 | CC(C)(C)NC(=O)[C@H]1CC[C@H]2[C@@H]3CC[C@H]4NC(=O)C=C[C@]4(C)[C@H]3CC[C@]12C [Form II of finasteride] | 0.42 ± 0.05 mg/g | 0.16 ± 0.02 mg/g
